# Reference: US10144732B2 (BIOGEN MA INC., priority 2014, dated 2018)
# Counter-ions that a name gives are not always drawn.
# Molecular target: T1, Human ATX protein (Homo sapiens, UniProt Q13822)
# T1 construct: made in house
# Experiment: ATX biochemical assay (FRET, FS-3 substrate)
# Details: FRET assay, FS-3 2 μM, ATX 1.0 μg/mL, 30 minutes preincubation, 2 hours reaction at room temperature; read-out: IC50
# How it was run: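 FRET read-out: cleavage of FS-3 (2 μM final) unquenches fluorescein, measured at 485/538 nm after 2 h at room temperature. Before substrate addition, in-house-expressed human autotaxin (1.0 μg/mL) sat with compound for 30 min in pH 7.4 Tris/NaCl/KCl/CaCl2/MgCl2 buffer containing fatty acid free-BSA at 1 mg/mL.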
row,Compound,IC50 [nM]
1,"CC(C)(C)OC(=O)NC12CCC(C(=O)N3CCc4c(C(F)(F)F)nn(Cc5ccc(F)cc5)c4C3)(CC1)CC2 [Example 8-10, tert-Butyl 4-(1-(4-fluorobenzyl)-3-(trifluoromethyl)-4,5,6,7-tetrahydro-1H-pyrazolo[3,4-c]pyridine-6-carbonyl)bicyclo[2.2.2]octan-1-ylcarbamate]",≤ 100
2,"O=C(CC12CCC(C(=O)O)(CC1)CC2)N1CCc2c(C(F)(F)F)nn(Cc3ccc(F)cc3)c2C1 [Example 5-13, 4-(2-(1-(4-Fluorobenzyl)-3-(trifluoromethyl)-4,5-dihydro-1H-pyrazolo[3,4-c]pyridin-6(7H)-yl)-2-oxoethyl)bicyclo[2.2.2]octane-1-carboxylic acid]",≤ 100
3,"O=C(C[C@H]1CC[C@H](C(=O)O)CC1)N1CCc2c(-c3cccnc3)nn(Cc3ccc(F)cc3)c2C1 [Example 5-40, trans-4-(2-(1-(4-Fluorobenzyl)-3-(pyridin-3-yl)-4,5-dihydro-1H-pyrazolo[3,4-c]pyridin-6(7H)-yl)-2-oxoethyl)cyclohexanecarboxylic acid]",≤ 100
4,"O=C(C[C@H]1CC[C@H](C(=O)O)CC1)N1CCc2c(CO)nn(Cc3ccc(F)cc3)c2C1 [Example 5-45, trans-4-(2-(1-(4-Fluorobenzyl)-3-(hydroxymethyl)-4,5-dihydro-1H-pyrazolo[3,4-c]pyridin-6(7H)-yl)-2-oxoethyl)cyclohexanecarboxylic acid]",≤ 100
5,"CCOC(=O)[C@H]1CC[C@H](CC(=O)N2CCc3c(C(F)F)nn(Cc4ccc(F)cc4)c3C2)CC1 [Example 1-38, trans-Ethyl 4-(2-(3-(difluoromethyl)-1-(4-fluorobenzyl)-4,5-dihydro-1H-pyrazolo[3,4-c]pyridin-6(7H)-yl)-2-oxoethyl)cyclohexanecarboxylate]",≤ 100
6,"O=C(CC1CNCCO1)N1CCc2c(C(F)(F)F)nn(Cc3ccc(F)cc3)c2C1 (stereo not drawn) [Example 9-16, 1-(1-(4-Fluorobenzyl)-3-(trifluoromethyl)-4,5-dihydro-1H-pyrazolo[3,4-c]pyridin-6(7H)-yl)-2-(morpholin-2-yl)ethanone TFA salt]",≤ 100
7,"CC1(C)C(CC(=O)N2CCc3c(C(F)(F)F)nn(Cc4ccc(Cl)cc4F)c3C2)CC1C(=O)O (mixture of isomers) [Example 6-14, 3-(2-(1-(4-Chloro-2-fluorobenzyl)-3-(trifluoromethyl)-4,5-dihydro-1H-pyrazolo[3,4-c]pyridin-6(7H)-yl)-2-oxoethyl)-2,2-dimethylcyclobutanecarboxylic acid]",≤ 100
8,"O=C(C[C@H]1CC[C@@H](C(=O)O)CC1)N1CCc2c(C(F)(F)F)nn(Cc3ccc(Cl)cc3F)c2C1 [Example 5-2, cis-4-(2-(1-(4-Chloro-2-fluorobenzyl)-3-(trifluoromethyl)-4,5-dihydro-1H-pyrazolo[3,4-c]pyridin-6(7H)-yl)-2-oxoethyl)cyclohexanecarboxylic acid]",≤ 100
9,"O=C(O)C1CCN(CC(=O)N2CCc3c(C(F)(F)F)nn(Cc4ccc(Cl)cc4F)c3C2)CC1 [Example 13-2, 1-(2-(1-(4-Chloro-2-fluorobenzyl)-3-(trifluoromethyl)-4,5-dihydro-1H-pyrazolo[3,4-c]pyridin-6(7H)-yl)-2-oxoethyl)piperidine-4-carboxylic acid]",≤ 100
10,"CCOC(=O)[C@H]1CC[C@H](CC(=O)N2CCc3c(C(F)(F)F)nn(C4CCCCC4)c3C2)CC1 [Example 1-24, trans-Ethyl 4-(2-(1-cyclohexyl-3-(trifluoromethyl)-4,5-dihydro-1H-pyrazolo[3,4-c]pyridin-6(7H)-yl)-2-oxoethyl)cyclohexanecarboxylate]",250 to 500
11,"CCOC(=O)[C@H]1CC[C@H](CC(=O)N2CCc3c(C(F)(F)F)nn(Cc4cc(F)cc(Cl)c4)c3C2)CC1 [Example 2-3, trans-Ethyl 4-(2-(1-(3-chloro-5-fluorobenzyl)-3-(trifluoromethyl)-4,5-dihydro-1H-pyrazolo[3,4-c]pyridin-6(7H)-yl)-2-oxoethyl)cyclohexanecarboxylate]",≤ 100
12,"O=C(O)CC1CCN(CC(=O)N2CCc3c(C(F)(F)F)nn(Cc4ccc(F)cc4)c3C2)C1 (stereo not drawn) [Example 13-25, 2-(1-(2-(1-(4-Fluorobenzyl)-3-(trifluoromethyl)-4,5-dihydro-1H-pyrazolo[3,4-c]pyridin-6(7H)-yl)-2-oxoethyl)pyrrolidin-3-yl)acetic acid TFA salt]",≤ 100
13,"CC(C)N1CCC(CC(=O)N2CCc3c(C(F)(F)F)nn(Cc4ccc(Cl)cc4F)c3C2)CC1 [Example 11-2, 1-(1-(4-Chloro-2-fluorobenzyl)-3-(trifluoromethyl)-4,5-dihydro-1H-pyrazolo[3,4-c]pyridin-6(7H)-yl)-2-(1-isopropylpiperidin-4-yl)ethanone HCl salt]",≤ 100
14,"CCOC(=O)CCNCC(=O)N1CCc2c(C(F)(F)F)nn(Cc3ccc(F)cc3)c2C1 [Example 12-9, Ethyl 3-(2-(1-(4-fluorobenzyl)-3-(trifluoromethyl)-4,5-dihydro-1H-pyrazolo[3,4-c]pyridin-6(7H)-yl)-2-oxoethylamino)propanoate]",> 10000
15,"O=C(O)C1CC2CN(CC(=O)N3CCc4c(C(F)(F)F)nn(Cc5ccc(Cl)cc5F)c4C3)CC2C1 (stereo not drawn) [Example 13-9, 2-(2-(1-(4-Chloro-2-fluorobenzyl)-3-(trifluoromethyl)-4,5-dihydro-1H-pyrazolo[3,4-c]pyridin-6(7H)-yl)-2-oxoethyl)octahydrocyclopenta[c]pyrrole-5-carboxylic acid TFA salt]",≤ 100
16,"CC(C)(C)OC(=O)N1CCC(CC(=O)N2CCc3c(C(F)(F)F)nn(Cc4ccc(Cl)cc4F)c3C2)CC1C(F)(F)F (stereo not drawn) [Example 8-7, tert-Butyl 4-(2-(1-(4-chloro-2-fluorobenzyl)-3-(trifluoromethyl)-4,5-dihydro-1H-pyrazolo[3,4-c]pyridin-6(7H)-yl)-2-oxoethyl)-2-(trifluoromethyl)piperidine-1-carboxylate]",≤ 100
17,"CC1(C(=O)O)CCC(CC(=O)N2CCc3c(C(F)(F)F)nn(Cc4ccc(F)cc4)c3C2)CC1 (stereo not drawn) [Example 6-11, 4-(2-(1-(4-Fluorobenzyl)-3-(trifluoromethyl)-4,5-dihydro-1H-pyrazolo[3,4-c]pyridin-6(7H)-yl)-2-oxoethyl)-1-methylcyclohexanecarboxylic acid]",≤ 100
18,"O=C(CC1CCCNC1)N1CCc2c(C(F)(F)F)nn(Cc3ccc(F)cc3)c2C1 (stereo not drawn) [Example 9-4, 1-(1-(4-Fluorobenzyl)-3-(trifluoromethyl)-4,5-dihydro-1H-pyrazolo[3,4-c]pyridin-6(7H)-yl)-2-(piperidin-3-yl)ethanone HCl salt]",≤ 100
19,"Cc1ccc(Cn2nc(C(F)(F)F)c3c2CN(C(=O)C[C@H]2CC[C@H](C(=O)O)CC2)CC3)cc1 [Example 5-14, trans-4-(2-(1-(4-Methylbenzyl)-3-(trifluoromethyl)-4,5-dihydro-1H-pyrazolo[3,4-c]pyridin-6(7H)-yl)-2-oxoethyl)cyclohexanecarboxylic acid]",≤ 100
20,"CCOC(=O)[C@H]1CC[C@H](CC(=O)N2CCc3c(C4CC4)nn(Cc4ccc(F)cc4)c3C2)CC1 [Example 1-39, trans-Ethyl 4-(2-(3-cyclopropyl-1-(4-fluorobenzyl)-4,5-dihydro-1H-pyrazolo[3,4-c]pyridin-6(7H)-yl)-2-oxoethyl)cyclohexanecarboxylate]",≤ 100
21,"CCOC(=O)[C@H]1CC[C@H](CC(=O)N2CCc3c(C(F)(F)F)nn(Cc4ccc(OC)cc4)c3C2)CC1 [Example 1-26, trans-Ethyl 4-(2-(1-(4-methoxylbenzyl)-3-(trifluoromethyl)-4,5-dihydro-1H-pyrazolo[3,4-c]pyridin-6(7H)-yl)-2-oxoethyl)cyclohexanecarboxylate]",≤ 100
22,"N#C[C@H]1CC[C@@H](CC(=O)N2CCc3c(C(F)(F)F)nn(Cc4ccc(F)cc4)c3C2)CC1 [Example 21-1, cis-4-(2-(1-(4-Fluorobenzyl)-3-(trifluoromethyl)-4,5-dihydro-1H-pyrazolo[3,4-c]pyridin-6(7H)-yl)-2-oxoethyl)cyclohexanecarbonitrile]",≤ 100
23,"COC(=O)C1CCC(C(=O)N2CCc3c(C(F)(F)F)nn(Cc4ccc(F)cc4)c3C2)CC1 (stereo not drawn) [Example 1-22, Methyl 4-(1-(4-fluorobenzyl)-3-(trifluoromethyl)-4,5,6,7-tetrahydro-1H-pyrazolo[3,4-c]pyridine-6-carbonyl)cyclohexanecarboxylate]",> 10000
24,"O=C(C[C@H]1CC[C@H](C(=O)O)CC1)N1CCc2c(C(F)(F)F)nn(Cc3ccsc3)c2C1 [Example 5-27, trans-4-(2-Oxo-2-(1-(thiophen-3-ylmethyl)-3-(trifluoromethyl)-4,5-dihydro-1H-pyrazolo[3,4-c]pyridin-6(7H)-yl)ethyl)cyclohexanecarboxylic acid]",≤ 100
25,"O=C(C[C@H]1CC[C@H](C(=O)O)CC1)N1CCc2c(C(F)(F)F)nn(Cc3cccs3)c2C1 [Example 5-26, trans-4-(2-Oxo-2-(1-(thiophen-2-ylmethyl)-3-(trifluoromethyl)-4,5-dihydro-1H-pyrazolo[3,4-c]pyridin-6(7H)-yl)ethyl)cyclohexanecarboxylic acid]",≤ 100
26,"CCOC(=O)C1CCN(C(C)C(=O)N2CCc3c(C(F)(F)F)nn(Cc4ccc(Cl)cc4F)c3C2)CC1 (stereo not drawn) [Example 12-6, Ethyl 1-(1-(1-(4-chloro-2-fluorobenzyl)-3-(trifluoromethyl)-4,5-dihydro-1H-pyrazolo[3,4-c]pyridin-6(7H)-yl)-1-oxopropan-2-yl)piperidine-4-carboxylate]",≤ 100
27,"C[C@]1(C(=O)O)CC[C@@H](CC(=O)N2CCc3c(C(F)(F)F)nn(Cc4ccc(F)cc4)c3C2)CC1 [Example 7-25, cis-4-(2-(1-(4-fluorobenzyl)-3-(trifluoromethyl)-4,5-dihydro-1H-pyrazolo[3,4-c]pyridin-6(7H)-yl)-2-oxoethyl)-1-methylcyclohexanecarboxylic acid]",≤ 100
